Source: paper PMC9502528, “Stability Study of Alpinia galanga Constituents and Investigation of Their Membrane Permeability by ChemGPS-NP and the Parallel Artificial Membrane Permeability Assay” (Pharmaceutics, 2022)
Like-named read-outs stand apart in the source and are kept apart here.

Legend:
[1] = PAMPA-BBB (parallel artificial membrane permeability assay, porcine polar brain lipid extract); type: in vitro ADME
Procedure: The test solutions were prepared with DMSO at the concentration of 10.0 mM. These were diluted with PBS buffer pH = 7.4 (PAMPA-BBB) or pH = 6.8 (PAMPA-GI) to obtain the donor solutions (297.0 μL buffer + 3.0 μL DMSO solution) and filtered through Phenex-RC 15 mm, 0.2 μm syringe filters (Gen-Lab Ltd., Budapest, Hungary). A parallel artificial membrane permeability assay (PAMPA) system was used to determine the effective permeability (Pe) for the compounds of interest. Each well of the top plate (96-well polycarbonate-based filter donor plates (Multiscreen™-IP, MAIPN4510, pore size 0.45 μm; Millipore)) was coated with 5 μL of porcine polar brain lipid extract (PBLE) solution (8.0 mg PBLE + 4.0 mg cholesterol dissolved in 300.0 μL n-dodecane) for PAMPA-BBB; or with 5 μL of mixture of 8.0 mg phosphatidylcholine + 4.0 mg cholesterol dissolved in 300.0 μL n-dodecane for PAMPA-GI. Then, 150.0 μL of the filtrate was placed on the membrane. The bottom plate (96-well PTFE acceptor plates (Multiscreen Acceptor Plate, MSSACCEPTOR; Millipore)), was filled with 300.0 μL buffer solution (0.01 M PBS buffer, pH = 7.4). The donor and acceptor plates were fit, and then the sandwich system was incubated at 37 °C for 4 h in a Stat-Fax 2200 (Awareness Technology, Palm City, FL, USA). After the incubation, the PAMPA plates were separated and the compound concentrations in the donor (CD(t)) and acceptor (CA(t)) solutions, as well as in the donor solution at zero time point (CD(0)), were determined by UPLC-DAD. […] At iso-pH conditions (PAMPA-BBB), the effective permeability and the membrane retention of drugs were calculated by the following equation [21]:(1) Pe =−2.303/A(t−τSS)·(VA·VD/VA+VD)·lg[1−(VA+VD/(1−MR)·VD)×(CA(t)/CD(0))], where Pe is the effective permeability coefficient (cm/s), A is the filter area (0.24 cm^2), VD and VA are the volumes in the donor (0.15 cm^3) and acceptor phases (0.30 cm^3), t is the incubation time (s), τSS is the time (s) to reach steady-state (240 s), CD(t) is the concentration (mol/cm^3) of the compound in the donor phase at time t, CD(0) is the concentration (mol/cm^3) of the compound in the donor phase at time 0, and MR is the estimated membrane retention factor (the estimated mole fraction of solute lost to the membrane):(2) MR=1−CD(t)/CD(0)−VA/VDCA(t)/CD(0)
All experiments were performed in three triplicates on three consecutive days (n = 9).

[2] = tested on: nitric oxide (NO) production in mouse peritoneal macrophages; set-up: method as in PMID 15930771; conditions: cited from earlier work
[3] = PAMPA-GI of the A. galanga ethyl acetate extract; type: in vitro ADME; conditions: donor PBS pH 6.8, 37 °C, 4 h, UHPLC-DAD
Procedure: The test solutions were prepared with DMSO at the concentration of 10.0 mM. These were diluted with PBS buffer pH = 7.4 (PAMPA-BBB) or pH = 6.8 (PAMPA-GI) to obtain the donor solutions (297.0 μL buffer + 3.0 μL DMSO solution) and filtered through Phenex-RC 15 mm, 0.2 μm syringe filters (Gen-Lab Ltd., Budapest, Hungary). A parallel artificial membrane permeability assay (PAMPA) system was used to determine the effective permeability (Pe) for the compounds of interest. Each well of the top plate (96-well polycarbonate-based filter donor plates (Multiscreen™-IP, MAIPN4510, pore size 0.45 μm; Millipore)) was coated with 5 μL of porcine polar brain lipid extract (PBLE) solution (8.0 mg PBLE + 4.0 mg cholesterol dissolved in 300.0 μL n-dodecane) for PAMPA-BBB; or with 5 μL of mixture of 8.0 mg phosphatidylcholine + 4.0 mg cholesterol dissolved in 300.0 μL n-dodecane for PAMPA-GI. Then, 150.0 μL of the filtrate was placed on the membrane. The bottom plate (96-well PTFE acceptor plates (Multiscreen Acceptor Plate, MSSACCEPTOR; Millipore)), was filled with 300.0 μL buffer solution (0.01 M PBS buffer, pH = 7.4). […] After the incubation, the PAMPA plates were separated and the compound concentrations in the donor (CD(t)) and acceptor (CA(t)) solutions, as well as in the donor solution at zero time point (CD(0)), were determined by UPLC-DAD. […]

[4] = Stability analyses in PBS (pH 7.4) at 37 °C for 4 h, UPLC-DAD; type: physicochemical; conditions: for percentage difference between the initial and final concentrations: PBS pH 7.4, 37 °C, 4 h, 100 μM; for stability in aqueous media: aqueous media (PBS)
Procedure: The isolation of 8 compounds (compounds 1, 2, […], 5, 6, 7, 9, and 10) was carried out using flash chromatography and semi-preparative HPLC; the corresponding data is presented in the Supplementary Materials. For stability analyses, the stock solutions were prepared from the ethyl acetate extract (200 mg/mL) and from compounds 1, 2, 4, 5, 6, 7, 9, and 10 dissolved in dimethyl sulfoxide (DMSO) at the concentration of 10.0 mM. These were diluted 100-fold with PBS (Phosphate Buffer Saline; pH = 7.4). The samples were filtered through Phenex-RC 15 mm, 0.2 μm syringe filters (Gen-Lab Ltd., Budapest, Hungary). The solutions were incubated at 37 °C for 4 h; the decomposition was determined by UPLC-DAD. All experiments were performed in triplicates, on three consecutive days ([…]).
The eight isolated compounds (p-OH-benzaldehyde (1), trans-p-coumaryl-alcohol (2), p-coumaryl-aldehyde (4), galanganol A (5), galanganol B (6), trans-p-acetoxycinnamyl alcohol (7), 1′S-1′-acetoxychavicol acetate (9), and 1′S-1′-acetoxyeugenol acetate (10)) were identified by UHPLC-high-resolution Orbitrap® mass spectrometry (HR-MS) and by NMR spectroscopy; the corresponding data is presented in the Supplementary Materials, while Figure 3 depicts the structures of the isolated compounds. In order to answer the questions raised about the possible conversion and decomposition of the A. galanga constituents during the PAMPA-BBB experiment, investigation of the chemical stability of the isolated compounds was carried out in PBS medium (pH 7.4) at 37 °C for 4 h. For the analysis of the samples acquired in the stability experiments, the aforementioned UHPLC-DAD method that had previously been validated for linearity, precision, and accuracy was utilized (Tables S1 and S2).

[5] = set-up: method as in PMID 10564034; conditions: 5% ethanol-containing aqueous solution at 60 °C; cited from earlier work
[6] = PAMPA-BBB, pH 7.4, 37 °C, 4 h, Pe in cm/s, n = 9
[7] = pig, PAMPA, pH 7.4, Table S4 sheet Galangal compounds, PAMPA-BBB, read-out: logPe (converted)

| SMILES | PAMPA-BBB (blood–brain barrier permeability) ([1]; cutoff log Pe −6.0) | Papp at 4 h, 100 µM [1, 7] | nitric oxide (NO) production inhibitory activity [2] | percentage difference between the initial and final concentrations [4] | stability in aqueous media [4] | other results |
| --- | --- | --- | --- | --- | --- | --- |
| O=Cc1ccc(O)cc1 [Compound 1, p-OH-benzaldehyde] | + | 2.75 ×10⁻⁶ cm/s |  |  |  | log Pe [1, 6]: −5.56 ± 0.07 |
| OC/C=C/c1ccc(O)cc1 [Compound 2, trans-p-coumaryl-alcohol] | + | 1.38 ×10⁻⁶ cm/s | showed nitric oxide (NO) production inhibitory activities |  |  | log Pe [1, 6]: −5.86 ± 0.23 |
| O=C/C=C/c1ccc(O)cc1 [Compound 4, p-coumaryl-aldehyde] |  |  | showed nitric oxide (NO) production inhibitory activities |  |  | PAMPA-BBB (blood–brain barrier permeability) ([1]; PAMPA): +; log Pe ([1]; pig, PAMPA, 4 h, 100 µM, pH 7.4): −5.25 ± 0.27; Papp at 4 h, 100 µM ([1]; pig, PAMPA, pH 7.4, logPe): 5.62 ×10⁻⁶ cm/s |
| CC(=O)Oc1ccc(/C=C/CO)cc1 [Compound 7, trans-p-acetoxycinnamyl alcohol] |  | 31.6 ×10⁻⁶ cm/s |  | 8.04% | unstable |  |
| CC(=O)Oc1ccc(/C=C\CO)cc1 [Compound 8a, cis-p-acetoxycinnamyl alcohol] |  | 31.6 ×10⁻⁶ cm/s |  |  |  |  |
| C=C[C@H](OC(C)=O)c1ccc(OC(C)=O)cc1 [Compound 9, 1′S-1′-acetoxychavicol acetate] |  | 39.8 ×10⁻⁶ cm/s | showed nitric oxide (NO) production inhibitory activities | 57.78% | unstable | stability in aqueous ethanol [5]: instability |
| C=C[C@H](OC(C)=O)c1ccc(OC(C)=O)c(OC)c1 [Compound 10, 1′S-1′-acetoxyeugenol acetate] |  | 50.1 ×10⁻⁶ cm/s | showed nitric oxide (NO) production inhibitory activities | 14.32% | unstable |  |

Now from value to molecule, other results behind:

| PAMPA-BBB (blood–brain barrier permeability) ([1]; cutoff log Pe −6.0) | Papp at 4 h, 100 µM [1, 7] | SMILES | nitric oxide (NO) production inhibitory activity [2] | percentage difference between the initial and final concentrations [4] | stability in aqueous media [4] | other results |
| --- | --- | --- | --- | --- | --- | --- |
|  | 1.38 ×10⁻⁶ cm/s | OC/C=C\c1ccc(O)cc1 [Compound 3a, cis-p-coumaryl-alcohol] |  |  |  |  |
| − | 0.776 ×10⁻⁶ cm/s | OC[C@@H](C/C=C/c1ccc(O)cc1)[C@H](O)c1ccc(O)cc1 [Compound 5, galanganol A] |  |  |  | detection in the acceptor solution (PAMPA-GI) [3]: except for compounds 5 and 6 |
| − | 0.776 ×10⁻⁶ cm/s | OC[C@H](C/C=C/c1ccc(O)cc1)[C@H](O)c1ccc(O)cc1 [Compound 6, galanganol B] | showed nitric oxide (NO) production inhibitory activities |  |  | detection in the acceptor solution (PAMPA-GI) [3]: except for compounds 5 and 6; Papp at 4 h, 100 µM ([1]; pig, PAMPA, pH 7.4, PAMPA-BBB, pH 7.4, 37 °C, 4 h, Pe in cm/s, n = 9, read-out: log Pe (converted)): 0.724 ×10⁻⁶ cm/s |
